This is an account of results in patent US20150141381A1, “TETRACYCLINE COMPOUNDS HAVING TARGET THERAPEUTIC ACTIVITIES” (Paratek Pharmaceuticals, Inc., priority 2001, published 2015).

One assay relates to S. aureus RN450. As to the kind of experiment: In Vitro Anti-Bacterial Activity Assay (MIC), gram positive. The note with it: Staphylococcus aureus, RN450, 18 h. The class given is cell-based.
Another assay relates to E. coli mL308 225. As to the kind of experiment: In Vitro Anti-Bacterial Activity Assay (MIC), gram negative. Format: cell-based. The following applies: Escherichia coli, ML308225, 18 h.
The subject of assay [1] is cultured murine cortical neurons. As to the kind of experiment: Protection of Cultured Cortical Neurons from Excitotoxic Injury Induced by NMDA (NE Assay). Format: cell-based, mice. The following applies: NMDA 62.5 μM, LDH release 24 hours after starting the exposure. The protocol: Primary cortical astrocyte cultures were prepared from one-day old mice, as described in the literature procedure (Tikka, T M et al. J Immunol. 2001 Jun. 15; 166(12):7527-33). After decapitation, the forebrain cortices were collected, cleaned from meninges and, after mincing, dissociated by incubation in papain/Dnase solution followed by trituration. The dissociated cells were suspended in a culture medium consisting of Eagle's minimal essential medium (MEM) with 10% heat-inactivated fetal bovine serum and glutamine (2 mM) and plated in 75 cm^2 cell culture flasks. The medium was replaced with fresh culture medium at day 7. At confluence (day 12-15), the astrocytes were trypsinized and re-plated into 24-well culture vessels. On day 7-8, the neurons were cultured on top of these confluent astrocyte monolayers.
Cortical neuron suspensions were prepared from embryonic day 17 mice. The cortices were collected and meninges removed. The tissue was minced into small pieces and incubated in trypsin solution. The tissue was suspended using a pipette and after centrifugation resuspended and plated on top of astrocyte cultures at a density of 250,000 cells/well to 24-well culture vessel in Eagle's minimal essential medium (MEM, Earle's salts) supplemented with 20 mM glucose, 2 mM glutamine, 10% fetal bovine serum, and 10% heat-inactivated horse serum (HS). Medium was changed after 5 days to MEM containing 20 mM glucose, 2 mM glutamine, and 10% HS, as well as cytosine arabinoside (final concentration 10 μM) to inhibit cell division, and incubated for 2 days. Subsequently, cultures were fed twice weekly with MEM supplemented with 20 mM glucose, 2 mM glutamine and 10% HS, and used at day 12-15.
On the day of experiment, the culture medium was replaced with 1) MEM, 2) MEM containing the test tetracycline compounds. Positive control drug included 10 μM MK-801 (Sigma). […] As a control for total neuronal death, a 24 hour incubation with 500 μM NMDA was used (100% cell death control).
The cell viability was assessed by measuring lactate dehydrogenase (LDH) release 24 hours after starting the exposure. The LDH release to the culture medium was measured from cell-free medium using Sigma LDH reagent employing kinetic measurement of conversion of lactate to pyruvate using NADH as a cofactor. The rate of increase in absorbance at 340 nm was directly proportional to the activity of LDH in the sample, and was measured with a Labsystems Multiskan ELISA reader.

In assay [2] the test system is nitric oxide synthesis in the J774 cell line. The assay is described as follows: Lipopolysaccharide Stimulation of Macrophage Assay (LSM Assay), inhibition of nitric oxide. The class given is cell-based. The following applies: for Nitrite (inhibition of nitric oxide synthesis): LPS-stimulated J774 cells, Table 3 (Continued) key; for Nitrite: inhibition of nitric oxide synthesis, LPS (100 ng/ml) stimulated J774 cells, nitrite by Greiss Reaction, test compound 56 μg/ml. How it is done:
This assay was used to determine the anti-inflammatory effect of tetracycline compounds of the invention by determining the modulation of nitric oxide, interleukin-10 and interleukin-12 synthesis in the J774 cell line, according to a literature procedure (D'Agostino P. et al. Int Immunopharmacol. 2001 September; 1(9-10):1765-76). J774.2 cells were stimulated with 100 ng/ml lipopolysaccharide (LPS). Nitrite, the spontaneous degradation product of nitric oxide, is measured in cell supernatants using the Greiss Reaction. In the experimental conditions, test tetracycline compounds were added 30 minutes prior to LPS stimulation. Cytotoxicity is determined using Resazurin metabolism. On the first day, a 96-well black-walled plate (except for the bottom row) was seeded with 100 μl of a 2.5×10^6 cells/ml suspension and incubated for two hours at 37° C. and 5% CO2. Towards the end of the two hour incubation period, test compounds were prepared at a concentration of 139 μg/ml, in 1.25% DMSO, a 2.5× concentration ready for addition to the cells.
At the end of the two hour incubation period, 80 μl of each of the test tetracycline compound solutions were added to the cell plates to make a final concentration of 56 μg/ml. Next, 80 μl of 1.25% DMSO in media was added to the negative control wells. Then, 80 μl of media was added to the positive control wells. The plate was then incubated for half an hour at 37° C., 5% CO2. A 10× working solution of LPS was prepared at a concentration of 1 μg/ml LPS.
After the half hour incubation period, 20 μl of LPS (1 μg/ml) in media was added to half of the test and control wells to give a final concentration of 100 ng/ml. Next, 20 μl of media was added to other half of the wells. The plate was then incubated for 24 hours at 37° C., 5% CO2. 100 μl of the supernatant from each well was collected for nitrite testing. 60 μl of the supernatant was collected for cytokine testing using an enzyme linked immunosorbant assay. The plates are then stored after being covered with sealer and frozen.
For the testing toxicity, the remaining media was blotted from the cell plates and 50 μl of Resazurin was added to each well (0.042 mg/ml in PBS w/Ca and Mg). The plate were then incubated for 45 mins, 37° C., 5% CO2, and for 30 minutes at room temperature. The plate was then read for Resazurin fluorescence.
50 μl/well of sulfanilamide solution (1% sulfanilamide in 5% […]) was added to supernatant plates. The plates were then incubated for 10 minutes at room temperature in the dark. Next, 50 μl/well NED solution (0.1% N-1-naphthylethylene diamine dihydrochloride in water) was added and incubated for 10 minutes at room temperature in the dark. Plates are then read for nitrite measurement and compared to a standard curve generated from the control wells.

Where [3] appears, read: MIC class, Table 3, read-out: Antibiotic Activity Gram +.
The mark [4] stands for this setting: MIC class, Table 3, read-out: Antibiotic Activity Gram −.
[5] abbreviates: gram positive bacteria, read-out: Antibiotic Activity Gram + (MIC).
Setting [6] is: gram negative bacteria, read-out: Antibiotic Activity Gram − (MIC).

SMILES strings stand for the structures. Where two headings read alike, the source gives them in different places. A value given as a limit tells only on which side of the number the result lay.

With `CCC(=O)O[C@H]1[C@H]2C(=C(O)[C@]3(O)C(=O)C(C(N)=O)=C(O)[C@@H](N(C)C)[C@H]13)C(=O)c1c(O)cccc1[C@@H]2C` [M], the values for the MIC in the assay with S. aureus RN450 (setting [3]) and in the assay with E. coli mL308 225 (setting [4]) were below 4 µg/mL and above 4 µg/mL, respectively. For the same compound, the “neuroprotection (cell viability by LDH release)” value (from here on “neuroprotection”) in assay [1] was “good neuroprotection”.

In the case of `CN(C)c1cc(NC(=O)Nc2ccc([N+](=O)[O-])cc2)c(O)c2c1C[C@H]1C[C@H]3[C@@H](N(C)C)C(O)=C(C(N)=O)C(=O)[C@@]3(O)C(O)=C1C2=O` [CD], the values for the MIC in the assay on S. aureus RN450 (setting [3]) and with E. coli mL308 225 (setting [4]) were below 4 µg/mL and above 4 µg/mL, respectively. For the same compound, the “neuroprotection” value in assay [1] was “good neuroprotection”.

As for `CN(C)[C@@H]1C(O)=C(C(N)=O)C(=O)[C@@]2(O)C(O)=C3C(=O)c4c(O)ccc(/C=C/C(=O)NC(C)(C)C)c4C[C@H]3C[C@@H]12` [CW], the MIC with S. aureus RN450 (setting [3]) is below 4 µg/mL; in the assay with E. coli mL308 225 (setting [4]), above 4 µg/mL. The “neuroprotection” value in assay [1] is given as “good neuroprotection”.

For the compound `CN(C)c1cc(NC(=O)Nc2cccc(F)c2)c(O)c2c1C[C@H]1C[C@H]3[C@@H](N(C)C)C(O)=C(C(N)=O)C(=O)[C@@]3(O)C(O)=C1C2=O` [H], the MIC in the assay with S. aureus RN450 (setting [3]) was below 4 µg/mL; in the assay on E. coli mL308 225 (setting [4]), above 4 µg/mL. The “neuroprotection” value in assay [1] is listed as “good neuroprotection”.

As for `CN(C)[C@@H]1C(O)=C(C(N)=O)C(=O)[C@@]2(O)C(O)=C3C(=O)c4c(O)ccc(-c5ccccn5)c4C[C@H]3C[C@@H]12`, the MIC in the assay on S. aureus RN450 (setting [5]) and with E. coli mL308 225 (setting [6]) was below 4 µg/mL each time. For the same compound, the “Nitrite (inhibition of nitric oxide synthesis)” value in assay [2] is 3.

Consider `CN(C)[C@@H]1C(O)=C(C(N)=O)C(=O)[C@@]2(O)C(O)=C3C(=O)c4c(O)c(C(C)(C)C)cc(CN)c4C[C@H]3C[C@@H]12` [IE], for which the MIC with S. aureus RN450 (setting [3]) and with E. coli mL308 225 (setting [4]) was above 4 µg/mL throughout. In addition, in assay [1], the “neuroprotection” value was “good neuroprotection”.

As for `CN(C)C1C(O)=C(C(N)=O)C(=O)[C@@]2(O)C(O)=C3C(=O)c4c(O)ccc(CNCC(C)(C)C)c4C[C@H]3C[C@@H]12` (stereo partly drawn) [JD], the MIC with S. aureus RN450 (setting [3]) and in the assay on E. coli mL308 225 (setting [4]) was below 4 µg/mL in each case. The “neuroprotection” value in assay [1] is listed as “good neuroprotection”.

As to `CCC(=O)O[C@H]1[C@H]2C(=C(O)[C@]3(O)C(=O)C(C(N)=O)=C(O)[C@@H](N(C)C)[C@H]13)C(=O)c1c(ccc(NC(=O)Nc3cccc4ccccc34)c1O)[C@@H]2C` [Q], the MIC in the assay with S. aureus RN450 (setting [3]) is below 4 µg/mL; in the assay on E. coli mL308 225 (setting [4]), above 4 µg/mL. Further, the Nitrite result in assay [2] is “○”. For the same compound, the “neuroprotection” value in assay [1] is listed as “good neuroprotection”.

Take `CN(C)c1cc(NCc2ccc3c(c2)OCO3)c(O)c2c1C[C@H]1C[C@H]3[C@H](N(C)C)C(O)=C(C(N)=O)C(=O)[C@@]3(O)C(O)=C1C2=O` [EV]: the MIC in the assay with S. aureus RN450 (setting [3]) and in the assay on E. coli mL308 225 (setting [4]) was above 4 µg/mL each time. Besides, the “neuroprotection” value in assay [1] is recorded as “good neuroprotection”.

As to `C=C1c2cccc(O)c2C(=O)C2=C(O)[C@]3(O)C(=O)C(C(N)=O)=C(O)[C@@H](N(C)C)[C@@H]3[C@@H](O)[C@H]12` [C], the MIC in the assay with S. aureus RN450 (setting [3]) and in the assay with E. coli mL308 225 (setting [4]) was above 4 µg/mL throughout. For the same compound, the “neuroprotection” value in assay [1] is “good neuroprotection”.

Take `CN(C)c1cc(-c2ccc(CN3CCCC3)o2)c(O)c2c1C[C@H]1C[C@H]3[C@H](N(C)C)C(O)=C(C(N)=O)C(=O)[C@@]3(O)C(O)=C1C2=O` [LJ]: the MIC in the assay with S. aureus RN450 (setting [3]) and in the assay on E. coli mL308 225 (setting [4]) was above 4 µg/mL throughout. The Nitrite result in assay [2] is “○”.

Regarding `CN(C)[C@H]1C(O)=C(C(N)=O)C(=O)[C@@]2(O)C(O)=C3C(=O)c4c(O)c(CN)cc(-c5ccccc5)c4C[C@H]3C[C@@H]12` [JC], the MIC in the assay with S. aureus RN450 (setting [3]) and in the assay on E. coli mL308 225 (setting [4]) was above 4 µg/mL each time. The “neuroprotection” value in assay [1] is “good neuroprotection”.

Regarding `CN(C)CCCOC(=O)/C=C/c1ccc(O)c2c1C[C@H]1C[C@H]3[C@H](N(C)C)C(O)=C(C(N)=O)C(=O)[C@@]3(O)C(O)=C1C2=O` [BP], the MIC in the assay on S. aureus RN450 (setting [3]) and with E. coli mL308 225 (setting [4]) was below 4 µg/mL each time. Also, the “neuroprotection” value in assay [1] was “good neuroprotection”.

In the case of `CN(C)Cc1ccc(O)c2c1C[C@H]1C[C@H]3[C@@H](N(C)C)C(O)=C(C(N)=O)C(=O)[C@@]3(O)C(O)=C1C2=O` [KF], the MIC in the assay on S. aureus RN450 (setting [3]) and in the assay with E. coli mL308 225 (setting [4]) was below 4 µg/mL each time. Moreover, the “neuroprotection” value in assay [1] is on record as “good neuroprotection”.

Take `CCCCOc1ccc(N(C)C)c2c1C(=O)C1=C(O)[C@]3(O)C(=O)C(C(N)=O)=C(O)[C@@H](N(C)C)[C@@H]3C[C@@H]1C2` [OM]: the MIC in the assay with S. aureus RN450 (setting [3]) and in the assay with E. coli mL308 225 (setting [4]) was above 4 µg/mL throughout. The Nitrite result in assay [2] is recorded as “○”. For the same compound, the “neuroprotection” value in assay [1] is listed as “good neuroprotection”.

For the compound `C[C@H]1c2ccc(CN3CCC(C(F)(F)F)CC3)c(O)c2C(=O)C2=C(O)[C@]3(O)C(=O)C(C(N)=O)=C(O)[C@@H](N(C)C)[C@@H]3[C@@H](O)[C@@H]21`, the MIC in the assay on S. aureus RN450 (setting [5]) and in the assay with E. coli mL308 225 (setting [6]) was below 4 µg/mL each time. In assay [2], the “Nitrite (inhibition of nitric oxide synthesis)” value is recorded as 3.

As for `CC(=O)Nc1cccc(-c2cc(N(C)C)c3c(c2O)C(=O)C2=C(O)[C@]4(O)C(=O)C(C(N)=O)=C(O)[C@@H](N(C)C)[C@@H]4C[C@@H]2C3)c1` [G], the MIC with S. aureus RN450 (setting [3]) and in the assay with E. coli mL308 225 (setting [4]) was above 4 µg/mL in each case. In assay [2], the Nitrite result was “○”. For the same compound, the “neuroprotection” value in assay [1] is reported as “good neuroprotection”.
